Data from BindingDB's records for doi:10.1021/jm011007+ (University of Perugia, 2002).
Values joined by “and” are separate entries in the source; they are usually repeats but may differ in a detail not shown here. Identical values can stand only once.

What was measured:
[1] = target: Sodium-dependent dopamine transporter (Homo sapiens, UniProt Q01959); assay: Inhibition of radioligand [125I]RTI-55 binding to human Dopamine transporter in clonal cells
[2] = target: Sodium-dependent serotonin transporter (Homo sapiens, UniProt P31645); assay: Inhibition of [125I]RTI-55 binding to human SERT in clonal cells
Chain of Sodium-dependent serotonin transporter (P31645 whole entry): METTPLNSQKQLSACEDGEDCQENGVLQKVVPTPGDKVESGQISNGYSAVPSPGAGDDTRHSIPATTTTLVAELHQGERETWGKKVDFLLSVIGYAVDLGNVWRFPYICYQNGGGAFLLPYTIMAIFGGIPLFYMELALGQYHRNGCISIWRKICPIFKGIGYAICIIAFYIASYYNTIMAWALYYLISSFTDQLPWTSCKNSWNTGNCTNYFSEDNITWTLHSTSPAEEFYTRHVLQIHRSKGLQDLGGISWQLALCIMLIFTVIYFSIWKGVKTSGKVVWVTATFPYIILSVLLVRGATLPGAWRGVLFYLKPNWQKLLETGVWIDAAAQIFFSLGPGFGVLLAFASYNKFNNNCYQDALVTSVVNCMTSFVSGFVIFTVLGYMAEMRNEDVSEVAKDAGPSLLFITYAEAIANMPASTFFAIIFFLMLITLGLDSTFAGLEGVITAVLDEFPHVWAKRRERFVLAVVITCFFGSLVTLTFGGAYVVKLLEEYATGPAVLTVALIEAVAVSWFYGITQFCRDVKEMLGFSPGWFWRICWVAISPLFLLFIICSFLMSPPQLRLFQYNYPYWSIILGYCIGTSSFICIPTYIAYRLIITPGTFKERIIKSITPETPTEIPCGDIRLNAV

Chain of Sodium-dependent dopamine transporter (Q01959 whole entry): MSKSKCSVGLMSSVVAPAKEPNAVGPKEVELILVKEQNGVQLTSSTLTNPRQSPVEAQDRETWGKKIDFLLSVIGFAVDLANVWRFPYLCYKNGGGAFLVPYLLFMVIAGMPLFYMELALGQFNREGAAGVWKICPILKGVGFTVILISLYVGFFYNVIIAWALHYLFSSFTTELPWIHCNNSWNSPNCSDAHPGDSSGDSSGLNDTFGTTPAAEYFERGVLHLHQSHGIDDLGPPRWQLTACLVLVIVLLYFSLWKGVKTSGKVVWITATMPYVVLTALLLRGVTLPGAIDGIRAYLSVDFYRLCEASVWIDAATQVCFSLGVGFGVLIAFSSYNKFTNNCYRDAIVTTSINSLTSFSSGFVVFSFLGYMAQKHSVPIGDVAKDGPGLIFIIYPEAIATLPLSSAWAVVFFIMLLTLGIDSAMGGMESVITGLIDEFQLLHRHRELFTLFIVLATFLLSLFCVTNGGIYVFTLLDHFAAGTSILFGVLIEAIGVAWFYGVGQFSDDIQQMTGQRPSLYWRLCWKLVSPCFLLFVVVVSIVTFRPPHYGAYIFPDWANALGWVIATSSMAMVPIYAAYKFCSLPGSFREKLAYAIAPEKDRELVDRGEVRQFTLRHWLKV

| SMILES | Kd [1] [µM] | Kd [2] |
| --- | --- | --- |
| COc1cccc(C(OCCN2CCN(C/C=C/c3ccccc3)CC2)c2cccc(Br)c2)c1 (stereo unspecified) | 0.132 | 0.741 µM |
| Fc1ccc(CN(CCN2CCN(CCCc3ccccc3)CC2)c2ccccn2)cc1 | 0.065 | 0.229 µM |
| Fc1ccc(C(OCCN2CCN(C/C=C/c3ccccc3)CC2)c2ccccc2)cc1 (stereo unspecified) | 0.033 | 0.214 µM |
| CN(CCc1ccccc1)CCN1CCN(CCCc2ccccc2)CC1 | 0.55 | 2.63 µM |
| COc1ccc(C(OCCN2CCN(C/C=C/c3ccccc3)CC2)c2ccccc2)cc1 (stereo unspecified) |  | 0.692 µM |
| Fc1ccc(CCCN2CCN(CCOC(c3ccccc3)c3ccccc3)CC2)cc1 | 0.04 | 1.82 µM |
| Fc1ccc(/C=C/CN2CCN(CCOC(c3ccccc3)c3ccc(F)cc3)CC2)cc1 (stereo unspecified) | 0.023 | 0.2 µM |
| Fc1ccc(CN(CCCN2CCN(CCCc3ccccc3)CC2)c2ccccn2)cc1 | 0.011 | 0.282 µM |
| COc1ccc(N(CCN2CCN(C/C=C/c3ccccc3)CC2)Cc2ccccc2)cc1 |  | 0.282 µM |
| COc1ccc(OC)c(/C=C/CN2CCN(CCOC(c3ccc(F)cc3)c3ccc(F)cc3)CC2)c1 | 0.0038 | 0.182 µM |
| Fc1ccc(C(OCCN2CCN(C/C=C/c3ccc(Cl)cc3)CC2)c2ccc(F)cc2)cc1 | 0.022 | 0.813 µM |
| COc1ccc(OC)c(/C=C/C(=O)N2CCN(CCOC(c3ccc(F)cc3)c3ccc(F)cc3)CC2)c1 | 0.562 | 0.204 µM |
| O=C(/C=C/c1ccc(Cl)cc1)N1CCN(CCOC(c2ccc(F)cc2)c2ccc(F)cc2)CC1 | 0.427 | 0.072 µM |
| Fc1ccc(C(OCCN2CCN(C/C=C/c3ccccc3)CC2)c2ccc(Cl)cc2Cl)cc1 (stereo unspecified) | 0.066 | 0.525 µM |
| O=C(CN1CCN(CCCc2ccccc2)CC1)N(Cc1ccccc1)c1ccccc1 | 1.07 | 2.88 µM |
| Fc1ccc(C(OCCN2CCN(CCCc3ccc(Cl)cc3)CC2)c2ccc(F)cc2)cc1 | 0.0081 | 0.155 µM |
| Clc1ccc(C(OCCN2CCN(C/C=C/c3ccccc3)CC2)c2ccc(Cl)cc2)cc1 | 0.038 | 0.331 µM |
| Fc1ccc(CCCN2CCN(CCOC(c3ccccc3)c3ccc(F)cc3)CC2)cc1 (stereo unspecified) | 0.031 | 0.468 µM |
| O=C(/C=C/c1ccccc1Cl)N1CCN(CCOC(c2ccc(F)cc2)c2ccc(F)cc2)CC1 | 0.724 | 0.17 µM |
| Cc1ccc(C(OCCN2CCN(C/C=C/c3ccccc3)CC2)c2ccccc2)cc1 (stereo unspecified) | 0.112 | 1.12 µM |
| c1ccc(CCCN2CCN(CCN(Cc3ccccc3)c3ccccn3)CC2)cc1 | 0.091 | 0.525 µM |
| Fc1ccc(C(OCCN2CCN(C/C=C/c3ccccc3)CC2)c2ccc(F)cc2)cc1 |  | 0.954 µM and 0.363 µM |
| COc1ccc(N(CCN2CCN(CCCc3ccccc3)CC2)Cc2ccccc2)cc1 | 0.912 | 0.257 µM |
| O=C(CCCN1CCN(CCCc2ccccc2)CC1)N(Cc1ccccc1)c1ccccc1 | 0.028 | 0.525 µM |
| Fc1ccc(CN(CCCN2CCN(CCCc3ccccc3)CC2)c2ccc(F)cc2)cc1 | 0.014 | 0.331 µM |
| Brc1ccc(CN(CCN2CCN(CCCc3ccccc3)CC2)c2ccc(Br)cc2)cc1 | 0.977 | 1.62 µM |

| SMILES | Kd [1] [µM] | Kd [2] |
| --- | --- | --- |
| Fc1ccc(CN(CCN2CCN(CCCc3ccccc3)CC2)c2ccc(F)cc2)cc1 | 0.052 | 0.269 µM |
| COc1ccc(/C=C/C(=O)N2CCN(CCOC(c3ccc(F)cc3)c3ccc(F)cc3)CC2)cc1 | 0.49 | 0.141 µM |
| c1ccc(CCCN2CCN(CCCN(Cc3ccccc3)c3ccccn3)CC2)cc1 | 0.107 | 2.29 µM |
| Fc1ccc(C(OCCN2CCN(CCCc3ccccc3)CC2)c2ccccc2)cc1 (stereo unspecified) | 0.02 | 0.617 µM |
| Fc1ccc(CCCN2CCN(CCOC(c3ccc(F)cc3)c3ccc(F)cc3)CC2)cc1 | 0.0056 | 0.363 µM |
| c1ccc(CCCN2CCN(CCN(Cc3ccccc3)c3ccccc3)CC2)cc1 | 0.219 | 1.2 µM |
| Cc1ccc(/C=C/C(=O)N2CCN(CCOC(c3ccc(F)cc3)c3ccc(F)cc3)CC2)cc1 | 0.794 | 0.195 µM |
| C(=C\c1ccccc1)/CN1CCN(CCN(Cc2ccccc2)c2ccccn2)CC1 | 1 | 0.676 µM |
| Cc1ccc(CN(CCN2CCN(CCCc3ccccc3)CC2)c2ccccc2)cc1 | 0.427 | 0.813 µM |
| COc1ccc(CN(CCN2CCN(CCCc3ccccc3)CC2)c2ccccn2)cc1 | 0.219 | 0.162 µM |
| C(=C\c1ccccc1)/CN1CCN(CCN(Cc2ccccc2)c2ccccc2)CC1 | 0.447 | 0.603 µM |
| Fc1ccc(C(OCCN2CCN(C/C=C/Cc3ccccc3)CC2)c2ccc(F)cc2)cc1 | 0.0051 | 0.072 µM |
| O=C(CCCCN1CCN(CCCc2ccccc2)CC1)N(Cc1ccccc1)c1ccccc1 | 0.058 | 0.204 µM |
| COc1ccc(/C=C/CN2CCN(CCOC(c3ccc(F)cc3)c3ccc(F)cc3)CC2)cc1 [1-{2-[Bis-(4-fluoro-phenyl)-methoxy]-ethyl}-4-[(E)-3-(4-methoxy-phenyl)-allyl]-piperazine] | 0.065 | 0.372 µM |
| Cc1ccc(/C=C/CN2CCN(CCOC(c3ccc(F)cc3)c3ccc(F)cc3)CC2)cc1 | 0.048 | 0.661 µM |
| Fc1ccc(/C=C/CN2CCN(CCOC(c3ccccc3)c3ccccc3)CC2)cc1 | 0.016 | 1.32 µM |
| COc1ccc(CN(CCN2CCN(C/C=C/c3ccccc3)CC2)c2ccccn2)cc1 | 2.19 | 0.229 µM |
| Fc1ccc(C(OCCN2CCN(Cc3ccccc3)CC2)c2ccc(F)cc2)cc1 | 0.098 | 0.182 µM |
| Fc1ccc(/C=C/CN2CCN(CCOC(c3ccc(F)cc3)c3ccc(F)cc3)CC2)cc1 | 0.0039 | 0.229 µM |
| O=C(/C=C/c1c(Cl)cccc1Cl)N1CCN(CCOC(c2ccc(F)cc2)c2ccc(F)cc2)CC1 | 1.51 | 0.209 µM |
| c1ccc(CCCN2CCN(CCCN(Cc3ccccc3)c3ccccc3)CC2)cc1 | 0.01 | 0.759 µM and 0.758 µM |
| COc1ccc(CN(CCCN2CCN(CCCc3ccccc3)CC2)c2ccccn2)cc1 | 0.016 | 0.059 µM |
| Fc1ccc(C(OCCN2CCN(C/C=C/c3ccccc3)CC2)c2ccc(Cl)cc2)cc1 (stereo unspecified) | 0.0039 | 0.191 µM |
| c1ccc(CCCN2CCN(CCCCN(Cc3ccccc3)c3ccccc3)CC2)cc1 | 0.014 | 0.132 µM |
| O=C(CCCN1CCN(CCCc2ccccc2)CC1)N(Cc1ccccc1)c1ccccn1 | 0.562 | 1.32 µM |
| c1ccc(CCCN2CCN(CCCCCN(Cc3ccccc3)c3ccccc3)CC2)cc1 | 0.032 | 0.234 µM |
